Earlier results on one compound are cited in PMC6647941 (ACS Omega, 2019).

For this data set the following is noted: dopamine transporter tracer ref 12.

With `CN1[C@H]2CC[C@@H]1[C@@H](CN(CC[S-])CC[N-]CC[S-])[C@@H](c1ccc(Cl)cc1)C2.[O]=[99Tc+4]` [^99mTc-TRODAT-1], the brain uptake is 0.40 % ID/g.
